Test results from patent publication US11549142B2, “CETP inhibitors for therapeutic use” (Hoffmann-La Roche Inc., priority 2013, dated 2023).
Values joined by “and” are separate entries in the source; they are usually repeats but may differ in a detail not shown here. Equal values may be shown once. “Also recorded” adds a separate entry of the source.

Test system: patients recently hospitalized for an Acute Coronary Syndrome (ACS)
Assay: dal-OUTCOMES phase III trial with pharmacogenomic (GWAS) analysis of cardiovascular events by ADCY9 genotype
Assay type: in vivo, human
Design: key to Predicted response: R: Responsive; PR: Partial Responsive; NR: Non Responsive
Protocol: The dalcetrapib mortality and morbidity trial (dal-OUTCOMES) was a double-blind, randomized, placebo-controlled, parallel group, multi-centre study in stable CHD patients recently hospitalized for acute coronary syndrome (ACS). The study was conducted to test the hypothesis that CETP inhibition will reduce the risk of recurrent cardiovascular events in patients with recent ACS by raising levels of HDL-C through CETP inhibition. Eligible patients entered a single-blind placebo run-in period of approximately 4 to 6 weeks to allow for patients to stabilize and for completion of planned revascularization procedures. At the end of the run-in period, eligible patients in stable condition were randomized in a 1:1 ratio to 600 mg of dalcetrapib or placebo on top of evidence-based medical care for ACS. Dalcetrapib is an inhibitor of cholesterol-ester transfer protein (CETP). […] The trial was interrupted in May 2012 by the DSMB on grounds of futility.
Dal-OUTCOMES trial (NC20971) was a double blind, randomized, placebo-controlled, parallel group, multi-center, phase III study to assess the safety and efficacy of the CETP inhibitor dalcetrapib in patients recently hospitalized for an Acute Coronary Syndrome (ACS). At time of the interim analysis the study included 15871 randomized patients, distributed over two treatment arms: placebo (7933 patients) and dalcetrapib (600 mg daily; 7938 patients). […] The dal-OUTCOMES study details can be found in G. Schwartz et al., N. Engl. J. Med. 367; 22, 2012.\
Whole genome analysis was performed in GLP-environment at the Beaulieu-Saucier Pharmacogenomics Centre. The Infinium® HumanOmni25Exome-8v1_A BeadChip (Illumina, San Diego, Calif.) including 2,567,845 genomic markers was used and processed according to the manufacturer's specifications. Approximately 200 ng of genomic DNA was whole-genome amplified, fragmented, and hybridized to locus-specific probes bound to the surface of each BeadChip. DNA was genotyped using a fluorescently labelled single base extension assay. BeadChips were scanned and analyzed using the Illumina® iScan Reader. Infinium® process controls were monitored and all results were within manufacturer's specifications. Scanned images were analyzed using Illumina's GenomeStudio® version 2011.1 with the GenTrain 2.0 cluster algorithm, using a No-Call threshold of 0.15, without manual cluster adjustment and using the manufacturer's Illumina® HumanOmni25Exome-8v1_A cluster file. […] Three genotyping files in PLINK format generated by GenomeStudio® were combined and transformed to binary PLINK format.
Genotyping completion rate for samples and SNPs was set to 98%. SNPs with genotyping plate bias (based on the 96 well plates used to dilute DNA samples) were flagged but not removed as the effect of genetic ancestry could not be excluded. Pairwise IBD was used to conduct close familial relationship checks. We flagged and removed all but one pair-member of related pairs and sample duplicates (IBS2*ratio>0.80) based on a selection of uncorrelated SNPs (r^2<0.1). The pairwise IBS matrix was used as a distance metric to identify cryptic relatedness among samples and sample outliers by multi-dimensional scaling (MDS). The first two MDS components of each subject were plotted including the genotypes of HapMap CEU, JPT-CHB, and YRI data (keeping only founder individuals). Outliers from the main Caucasian cluster were flagged and removed by k-nearest neighbour. (Supplementary FIG. 1) The scree plot and the cumulative explained variance were computed using the smartpca program of the EIGENSOFT suite (version 3.0). Options used were a numoutlieriter (maximum number of outlier removal iterations) of 0 (turned off) and altnormstyle (normalization formula) equal to NO. ^4 (Supplementary FIG. 2)
A statistical analysis plan was developed at the Beaulieu-Saucier Pharmacogenomics Centre and the final version approved prior to genotyping completion in October 2012. […]

## CCC(CC)CC1(C(=O)Nc2ccccc2SC(=O)C(C)C)CCCCC1 [dalcetrapib, thioisobutyric acid S-(2-{[1-(2-ethyl-butyl)-cyclohexanecarbonyl]-amino}-phenyl) ester]
All patients, 600 mg daily
  event rate in the primary efficacy endpoint (cardiovascular events), dalcetrapib arm compared to the placebo arm: lack of efficacy relative to statins alone; also recorded: did not show a significant reduction in cardiovascular events; also recorded: no evidence of reduction of the event rate
Patients on treatment, dal-OUTCOMES
  HDL-c: marked increase
rs1967309, dal-Outcomes treatment arm, Cox proportional hazards
  HR for events, additive genetic effect of one allele: 0.65 (95% CI 0.55, 0.76)
rs1967309 AA vs GG
  HR (95% CI) for time to events, dalcetrapib treatment arm only, genotype comparison: 0.40 (95% CI 0.28, 0.57) and 0.4 (0.28, 0.57)
rs1967309 GA vs GG
  HR (95% CI) for time to events, dalcetrapib treatment arm only, genotype comparison: 0.68 (95% CI 0.55, 0.84) and 0.68 (0.56, 0.84)
rs1967309 genotype AA
  Predicted response: R
rs1967309 genotype GA
  HR for time to events, dalcetrapib treatment arm versus placebo arm: 0.94
  Predicted response: PR
rs1967309 genotype GG
  HR for time to events, dalcetrapib treatment arm versus placebo arm: 1.27
  Predicted response: NR
rs2239310 AG vs AA
  HR (95% CI) for time to events, dalcetrapib treatment arm only, genotype comparison: 0.71 (0.58,0.87)
rs2239310 GG vs AA
  HR (95% CI) for time to events, dalcetrapib treatment arm only, genotype comparison: 0.43 (0.29, 0.63)
rs2239310 genotype AA
  HR for time to events, dalcetrapib treatment arm versus placebo arm: 1.16
  Predicted response: NR
rs2239310 genotype AG
  HR for time to events, dalcetrapib treatment arm versus placebo arm: 0.96
  Predicted response: PR
rs2239310 genotype GG
  HR for time to events, dalcetrapib treatment arm versus placebo arm: 0.6
  Predicted response: R
rs2283497 AA vs CC
  HR (95% CI) for time to events, dalcetrapib treatment arm only, genotype comparison: 0.53 (0.37, 0.76)
rs2283497 CA vs CC
  HR (95% CI) for time to events, dalcetrapib treatment arm only, genotype comparison: 0.83 (0.67, 1.02)
rs2283497 genotype AA
  HR for time to events, dalcetrapib treatment arm versus placebo arm: 0.57
  Predicted response: R
rs2283497 genotype CA
  HR for time to events, dalcetrapib treatment arm versus placebo arm: 0.99
  Predicted response: PR
rs2283497 genotype CC
  HR for time to events, dalcetrapib treatment arm versus placebo arm: 1.23
  Predicted response: NR
rs2531967 AA vs GG
  HR (95% CI) for time to events, dalcetrapib treatment arm only, genotype comparison: 0.5 (0.29, 0.86)
rs2531967 GA vs GG
  HR (95% CI) for time to events, dalcetrapib treatment arm only, genotype comparison: 0.75 (0.61, 0.93)
rs2531967 genotype AA
  HR for time to events, dalcetrapib treatment arm versus placebo arm: 0.67
  Predicted response: R
rs2531967 genotype GA
  HR for time to events, dalcetrapib treatment arm versus placebo arm: 0.86
  Predicted response: PR
rs2531967 genotype GG
  HR for time to events, dalcetrapib treatment arm versus placebo arm: 1.12
  Predicted response: NR
rs3730119 AA vs GG
  HR (95% CI) for time to events, dalcetrapib treatment arm only, genotype comparison: 0.49 (0.22, 1.1)
rs3730119 GA vs GG
  HR (95% CI) for time to events, dalcetrapib treatment arm only, genotype comparison: 0.78 (0.62, 0.99)
rs3730119 genotype AA
  HR for time to events, dalcetrapib treatment arm versus placebo arm: 0.48
  Predicted response: R
rs3730119 genotype GA
  HR for time to events, dalcetrapib treatment arm versus placebo arm: 0.86
  Predicted response: PR
rs3730119 genotype GG
  HR for time to events, dalcetrapib treatment arm versus placebo arm: 1.08
  Predicted response: NR
rs4786454 AA vs GG
  HR (95% CI) for time to events, dalcetrapib treatment arm only, genotype comparison: 0.37 (0.15, 0.9)
rs4786454 GA vs GG
  HR (95% CI) for time to events, dalcetrapib treatment arm only, genotype comparison: 0.69 (0.54, 0.87)
rs4786454 genotype AA
  HR for time to events, dalcetrapib treatment arm versus placebo arm: 0.52
  Predicted response: R
rs4786454 genotype GA
  HR for time to events, dalcetrapib treatment arm versus placebo arm: 0.89
  Predicted response: PR
rs4786454 genotype GG
  HR for time to events, dalcetrapib treatment arm versus placebo arm: 1.06
  Predicted response: NR
rs8049452 AA vs GG
  HR (95% CI) for time to events, dalcetrapib treatment arm only, genotype comparison: 1.98 (1.51, 2.61)
rs8049452 GA vs GG
  HR (95% CI) for time to events, dalcetrapib treatment arm only, genotype comparison: 1.26 (0.99, 1.6)
rs8049452 genotype AA
  HR for time to events, dalcetrapib treatment arm versus placebo arm: 1.55
  Predicted response: NR
rs8049452 genotype GA
  HR for time to events, dalcetrapib treatment arm versus placebo arm: 0.97
  Predicted response: PR
rs8049452 genotype GG
  HR for time to events, dalcetrapib treatment arm versus placebo arm: 0.78
  Predicted response: R
rs8061182 AG vs AA
  HR (95% CI) for time to events, dalcetrapib treatment arm only, genotype comparison: 1.23 (0.98, 1.56)
rs8061182 GG vs AA
  HR (95% CI) for time to events, dalcetrapib treatment arm only, genotype comparison: 1.81 (1.37, 2.39)
rs8061182 genotype AA
  HR for time to events, dalcetrapib treatment arm versus placebo arm: 0.79
  Predicted response: R
rs8061182 genotype AG
  HR for time to events, dalcetrapib treatment arm versus placebo arm: 0.99
  Predicted response: PR
rs8061182 genotype GG
  HR for time to events, dalcetrapib treatment arm versus placebo arm: 1.55
  Predicted response: NR
rs11647828 AG vs AA
  HR (95% CI) for time to events, dalcetrapib treatment arm only, genotype comparison: 0.74 (0.6, 0.92)
rs11647828 GG vs AA
  HR (95% CI) for time to events, dalcetrapib treatment arm only, genotype comparison: 0.46 (0.33, 0.63)
rs11647828 genotype AA
  HR for time to events, dalcetrapib treatment arm versus placebo arm: 1.33
  Predicted response: NR
rs11647828 genotype AG
  HR for time to events, dalcetrapib treatment arm versus placebo arm: 0.97
  Predicted response: PR
rs11647828 genotype GG
  HR for time to events, dalcetrapib treatment arm versus placebo arm: 0.61
  Predicted response: R
rs12595857 AG vs AA
  HR (95% CI) for time to events, dalcetrapib treatment arm only, genotype comparison: 0.7 (0.57, 0.87)
rs12595857 GG vs AA
  HR (95% CI) for time to events, dalcetrapib treatment arm only, genotype comparison: 0.45 (0.33, 0.62)
rs12595857 genotype AA
  HR for time to events, dalcetrapib treatment arm versus placebo arm: 1.27
  Predicted response: NR
rs12595857 genotype AG
  HR for time to events, dalcetrapib treatment arm versus placebo arm: 0.95
  Predicted response: PR
rs12595857 genotype GG
  HR for time to events, dalcetrapib treatment arm versus placebo arm: 0.7
  Predicted response: R
rs12935810 AA vs GG
  HR (95% CI) for time to events, dalcetrapib treatment arm only, genotype comparison: 1.87 (1.42, 2.48)
rs12935810 GA vs GG
  HR (95% CI) for time to events, dalcetrapib treatment arm only, genotype comparison: 1.3 (1.02, 1.65)
rs12935810 genotype AA
  HR for time to events, dalcetrapib treatment arm versus placebo arm: 1.28
  Predicted response: NR
rs12935810 genotype GA
  HR for time to events, dalcetrapib treatment arm versus placebo arm: 1.03
  Predicted response: NR
rs12935810 genotype GG
  HR for time to events, dalcetrapib treatment arm versus placebo arm: 0.79
  Predicted response: R
rs13337675 AG vs AA
  HR (95% CI) for time to events, dalcetrapib treatment arm only, genotype comparison: 0.84 (0.68, 1.03)
rs13337675 GG vs AA
  HR (95% CI) for time to events, dalcetrapib treatment arm only, genotype comparison: 0.7 (0.43, 1.14)
rs13337675 genotype AA
  HR for time to events, dalcetrapib treatment arm versus placebo arm: 1.07
  Predicted response: NR
rs13337675 genotype AG
  HR for time to events, dalcetrapib treatment arm versus placebo arm: 0.89
  Predicted response: PR
rs13337675 genotype GG
  HR for time to events, dalcetrapib treatment arm versus placebo arm: 1.03
  Predicted response: PR
rs17136707 AG vs AA
  HR (95% CI) for time to events, dalcetrapib treatment arm only, genotype comparison: 0.62 (0.47, 0.81)
rs17136707 GG vs AA
  HR (95% CI) for time to events, dalcetrapib treatment arm only, genotype comparison: 0.16 (0.02, 1.15)
rs17136707 genotype AA
  HR for time to events, dalcetrapib treatment arm versus placebo arm: 1.06
  Predicted response: NR
rs17136707 genotype AG
  HR for time to events, dalcetrapib treatment arm versus placebo arm: 0.8
  Predicted response: PR
rs17136707 genotype GG
  HR for time to events, dalcetrapib treatment arm versus placebo arm: 0.37
  Predicted response: R
rs74702385 AA vs GG
  HR (95% CI) for time to events, dalcetrapib treatment arm only, genotype comparison: 0.14 (0.02, 1)
rs74702385 GA vs GG
  HR (95% CI) for time to events, dalcetrapib treatment arm only, genotype comparison: 0.63 (0.48, 0.83)
rs74702385 genotype AA
  HR for time to events, dalcetrapib treatment arm versus placebo arm: 0.26
  Predicted response: R
rs74702385 genotype GA
  HR for time to events, dalcetrapib treatment arm versus placebo arm: 0.84
  Predicted response: R
rs74702385 genotype GG
  HR for time to events, dalcetrapib treatment arm versus placebo arm: 1.05
  Predicted response: NR
rs111590482 AG vs AA
  HR (95% CI) for time to events, dalcetrapib treatment arm only, genotype comparison: 0.64 (0.49, 0.84)
rs111590482 GG vs AA
  HR (95% CI) for time to events, dalcetrapib treatment arm only, genotype comparison: 0.15 (0.02, 1.1)
rs111590482 genotype AA
  HR for time to events, dalcetrapib treatment arm versus placebo arm: 1.04
  Predicted response: NR
rs111590482 genotype AG
  HR for time to events, dalcetrapib treatment arm versus placebo arm: 0.85
  Predicted response: R
rs111590482 genotype GG
  HR for time to events, dalcetrapib treatment arm versus placebo arm: 0.26
  Predicted response: R
